Data taken from BindingDB's records for doi:10.1021/jm00167a035 (Squibb Institute For Medical Research, 1990).

assay: Inhibition of [3H]nitrendipine binding to L-type calcium channel in guinea pig ventricular myocardium membranes

Kd [nM] | Structure (SMILES)
23 | CCOC(=O)C1C(C)=NC(SC)=NC1c1cccc([N+](=O)[O-])c1 (configuration not stated)

assay: as above; remark: another data set of the same source

Structure (SMILES) | Kd [nM]
COC(=O)C1=C(C)N=C(SC)NC1c1cccc([N+](=O)[O-])c1 (configuration not stated) | 120
CCOC(=O)C1=C(C)NC(N(C)C)=NC1c1cccc([N+](=O)[O-])c1 (configuration not stated) | 3400

Continued, values first:

Kd [nM] | Structure (SMILES)
12 | CSC1=NC(c2cccc([N+](=O)[O-])c2)C(C(=O)OC(C)C)=C(C)N1 (configuration not stated)
35 | CCOC(=O)C1=C(C)NC(SC)=NC1c1ccccc1C(F)(F)F (configuration not stated)
2.6 | CCC(C)OC(=O)C1=C(C)NC(SC)=NC1c1cccc([N+](=O)[O-])c1 (configuration not stated)
105 | CCOC(=O)C1=C(C)N=C(OC)NC1c1cccc([N+](=O)[O-])c1 (configuration not stated)
